Data reported in patent publication US6607893B2, “Diacylglycerol acyltransferase (DGAT) assay” (Warner-Lambert Company, priority 2000, dated 2003).

Experiments:
[1] = tested on: diacylglycerol acyltransferase (DGAT); test: DGAT enzyme assay, rat liver microsomes, [14C]triglyceride by TLC or 1-step extraction; settings: for Production of [14C]TAG: 0.8% solvent in reaction
Description: Rats were euthanized using CO2 affixation; their livers were immediately removed and placed in ice-cold microsome buffer (MC buffer) consisting of 125 mM sucrose, 3.0 mM imidazole, pH 7.4. Livers were cut into approximately 10 pieces, placed into 20 mL of ice cold MC buffer per liver and homogenized on ice in a glass Dounce power homogenizer using 10 up-and-down strokes. Homogenates were centrifuged at 1700 rpm in a Beckman JA-14 rotor for 10 minutes at 4° C. The supernatant was removed and placed on ice. The pellet was resuspended in 4.0 mL MC buffer per liver, rehomogenized as described above, and centrifuged at 1700 rpm in a Beckman JA-14 rotor for 10 minutes at 4° C. This supernatant was combined with the previous supernatant and centrifuged at 13,000 rpm in a Beckman JA-14 rotor for 20 minutes at 4° C. The supernatant was transferred to new tubes on ice, and the pellet was discarded. The supernate was centrifuged at 35,000 rpm in a Beckman Ti-70 rotor for 60 minutes at 4° C., and the resulting pellet, containing microsomal membranes, was resuspended in ice cold MC buffer using 17 strokes of a glass Dounce power homogenizer. Microsomal protein concentrations were determined by the Dc Protein Assay, and BSA was used to generate the standard curve. Microsomes were diluted to final protein concentration of 10 to 20 mg/mL. Microsomes were aliquoted into 1.0-mL tubes and stored in a liquid N2 cryofreezer.
DGAT Assay Buffer (DAB): 0.25 M sucrose, 1.0 mM EDTA, pH 8.0, 150 mM Tris-HCl, pH 7.4, and 1.25 mg/mL fatty acid free BSA.
Compounds were dissolved in DMSO and diluted to make 10× with DAB (10×compound) and kept at room temperature until the assay was performed.
Frozen aliquots of microsomes (10-20 mg/mL total protein) were thawed on ice and diluted to make a 5× working stock at the indicated concentrations with MC buffer and stored on ice until use.
The DGAT assay reaction was performed as follows: 5 μL of 10× compound was added to Perkin Elmer thin-walled reaction tubes followed by 35 μL of DGAT substrate mixture and vortexed. The reaction was started by the addition of 10 μL of the diluted 5× microsomes, vortexed, and incubated in a Perkin Elmer 9600 thermocycler for the indicated times and temperatures.
Reactions were stopped by the addition of 10 μL of 0.75N HCl. Samples were then spotted onto TLC plates and dried in a gravity convection oven at 70° C. for 30 minutes. Plates were developed in a 27×7.5×26 cm TLC chamber for 60 minutes at room temperature in 102 mL of isooctane:ethyl ether:acetic acid (75:25:2) for triglyceride determination. TLC plates were removed from the chamber, dried in a gravity convection oven at 70° C. for 30 minutes, wrapped in cellophane, and exposed to phosphorimager plates overnight. Phosphorimager plates were scanned on a phosphorimager and images were analyzed using ImageQuant software. A [^14C]glycerol trioleate standard was titrated onto TLC plates for mass determinations. All statistics were performed using Microsoft Excel's analysis software using a two-tailed t-test for means.
Reactions were stopped by the addition of 150 μL of AESSM followed by the addition of 300 μL of n-heptane. The mixture is pipetted 5× to mix and allowed to separate for 5 minutes at room temperature. The entire top phase, n-heptane phase, is removed to new tubes and spotted onto silica TLC plates and processed as described above (see TLC method) or placed into 5-mL scintillation vials containing scintillation cocktail and counted.

[2] = target: T1, diacylglycerol acyltransferase (DGAT); test: 96-well DGAT mass screen assay; type: biochemical, rat; settings: 22° C., 60 minutes
T1 construct: IC50, DGAT activity; other: Group 1 rat liver microsome preparation; 1-Step/Scintillation; 37° C., 5 minutes; 1-Step/TLC; TLC; other: Group 2 rat liver microsome preparation; 1-Step/Scintillation
Description: Plates are loaded onto the robot carousel. […] The robot arm transfers the plate to multidrop 2 for the addition of 20 μL of diluted microsomes and shaken for 1.0 minute at room temperature. The robot arm transfers the plate back to the carousel where it incubates for 1.0 hour at room temperature. The robot arm transfers the plate to multidrop 3 for the addition of 150 μL of AESSM. The robot arm transfers the plate to the multimek to begin the extraction. The reaction volume is transferred to a 96-[…] polypropylene extraction plate on the multimek. The tips are washed 3×100 μL of DI H2O in a reagent reservoir with a continuous flow of DI H2O. The multimek then washes out the 96-well reaction plate with 3×100 μL of n-heptane and transfers the volume to the extraction plate. The multimek mixes the volume in the extraction plate 6×100 μL, and the plate sits for 10 seconds. The tips are washed 3×100 μL of DI H2O in a continuous flow reagent reservoir. One hundred microliters of the top n-heptane phase is transferred to a Flash plate. The robot arm transfers the Flash plate to a carousel fitted with a fume hood, which allows the n-heptane to evaporate for a minimum of 6 hours. The plates are transferred to a plate sealer to be sealed, transferred to the top count scintillation counter, and counted for 1.0 minute. Data are collected and reported to the Trillium based compound management system.

`CCO` [95% EtOH, ethanol] was tested, and the “DGAT activity increase above control” value ([1]; 0.5% ethanol) was 121%, the “Production of [14C]TAG” value [1] was 104±0.4 pmoles [14C]TAG/mg microbe pro and the “DGAT activity increase above controls” value ([1]; 4.0% ethanol) was 180%.

With `CC(C)=O` [Acetone, acetone] the “DGAT activity increase above controls” value ([1]; 10.0% acetone) was 394%.

For `ClC(Cl)Cl` [Chloroform, chloroform], the “DGAT activity, % of control” value ([1]; 0.35% chloroform) was 955%.

For `C[S+](C)[O-]` [DMSO], the “effect on DGAT activity” value ([1]; 37° C. and 22° C.) was “decreases DGAT activity in a linear manner” and the “DMSO concentration at which DGAT assay showed significant changes” value ([1]; 37° C. and 22° C., p<0.05) was 4.5%.

With `Cc1ccc2c(c1)Oc1ccc(NC(=O)c3ccc(O)cc3)cc1C(=O)N2C` [N-(7,10-dimethyl-11-oxo-10,11-dihydro-dibenzo[b,f][1,4]oxazepin-2-yl)-4-hydroxy-benzamide] the IC50 ([2]; manually extracted samples) was 1700 nM, the IC50 ([2]; plate 1, 96-well mass screen extraction) was 1500 nM and the IC50 ([2]; plate 2, 96-well mass screen extraction) was 1270 nM. The IC50 ([1]; read-out: IC50, DGAT activity, Group 1 rat liver microsome preparation, 1-Step/Scintillation, 37° C., 5 minutes) was 1660 nM, the IC50 ([1]; read-out: IC50, DGAT activity, Group 1 rat liver microsome preparation, 1-Step/TLC, 37° C., 5 minutes) was 950 nM and the IC50 ([1]; read-out: IC50, DGAT activity, Group 1 rat liver microsome preparation, TLC, 37° C., 5 minutes) was 1070 nM. It also gave an IC50 ([1]; read-out: IC50, DGAT activity, Group 2 rat liver microsome preparation, 1-Step/Scintillation, 37° C., 5 minutes) of 1120 nM, an IC50 ([1]; read-out: IC50, DGAT activity, Group 2 rat liver microsome preparation, 1-Step/TLC, 37° C., 5 minutes) of 1140 nM and an IC50 ([1]; read-out: IC50, DGAT activity, Group 2 rat liver microsome preparation, TLC, 37° C., 5 minutes) of 1520 nM. It also gave an IC50 ([1]; read-out: IC50, DGAT activity, Group 3 rat liver microsome preparation, 1-Step/Scintillation, 37° C., 5 minutes) of 2050 nM, an IC50 ([1]; read-out: IC50, DGAT activity, Group 3 rat liver microsome preparation, 1-Step/TLC, 37° C., 5 minutes) of 2300 nM and an IC50 ([1]; read-out: IC50, DGAT activity, Group 3 rat liver microsome preparation, TLC, 37° C., 5 minutes) of 1740 nM. The IC50 ([1]; read-out: IC50, DGAT activity, Group 4 rat liver microsome preparation, 1-Step/Scintillation, 37° C., 5 minutes) was 1100 nM, the IC50 ([1]; read-out: IC50, DGAT activity, Group 4 rat liver microsome preparation, 1-Step/TLC, 37° C., 5 minutes) was 730 nM and the IC50 ([1]; read-out: IC50, DGAT activity, Group 4 rat liver microsome preparation, TLC, 37° C., 5 minutes) was 910 nM. The IC50 ([1]; read-out: IC50, DGAT inhibition, 0.8% ethanol and TLC) was 2600 nM, the IC50 ([1]; read-out: IC50, DGAT inhibition, 0.8% ethanol extracted (1-step) and run on TLC) was 2400 nM and the IC50 ([1]; read-out: IC50, DGAT inhibition, […] acetone:chloroform (8:2) and TLC) was 2000 nM. It also gave an IC50 ([1]; read-out: IC50, DGAT inhibition, […] acetone:chloroform (8:2) extracted (1-step) and run on TLC) of 2500 nM.

With `CCCCCCCC/C=C\CCCCCCCC(=O)OCCOCC(OCCO)C1OCC(OCCO)C1OCCO` (stereo not drawn) [Tween 80] the “Production of [14C]TAG” value [1] was 20±0.02 pmoles [14C]TAG/mg microbe pro.
